In patent US12617768B2, “Radiolabeled cannabinoid receptor 2 ligand” (HOFFMANN-LA ROCHE INC., priority 2018, dated 2026) one finds Ki data, which are given here for one compound.

The target of the test is T1, human CB1 receptors (Homo sapiens, UniProt P21554).
T1 construct: expressed in transfected cells; host or cells: stably transfected cells (cell line for CB1 not explicitly stated)
The test can be described thus: Radioligand competition binding of [^3H]CP55940, human CB1. As to conditions: competition with [^3H]CP55940; cells recombinantly expressing the receptor. On the procedure:
Stably transfected cells or spleen tissue were homogenized in 15 mmol L-1 Hepes, 0.3 mmol L-1 EDTA, 1 mmol L-1 EGTA, 2 mmol L-1 MgCl2, complete EDTA-free protease inhibitor (Roche Applied Science, Rotkreuz, Switzerland), pH 7.4 using a glass potter and centrifugation at 47,800 g at 4° C. for 30 min. The pellet was then rehomogenized twice in the same buffer and centrifuged (47,800 g, 4° C., 30 min). The final pellet was then resuspended in 75 mmol L-1 Tris, 0.3 mmol L-1 EDTA, 1 mmol L-1 EGTA, 12.5 mmol L-1 MgCl2, 250 mmol L-1 sucrose, pH 7.4 at a protein concentration of 1 to 3 mg mL-1, aliquoted, frozen on dry ice and stored at −80° C.
For competition binding, membrane preparations were incubated either with 0.3 nM of [^3H]-CP55940 in the presence or absence of increasing concentrations of unlabeled (R^1═R^2═CH2CH3, R^3═CH2CH2CH2F) compound of formula (I) or with 1.5 nM compound of formula (I) ((R^1═R^2═CHTCH2T, R^3═CH2CH2CH2F)) and increasing amounts of membranes (2.5-80 μg) in the presence or absence of CP55940 (10 μM) for 60 min at 30° C. in a final volume of 0.2 mL of 50 mmol L-1 Tris-HCl, 5 mmol L-1 MgCl2, 2.5 mmol L-1 EGTA, 0.1% fatty acid-free BSA and 1% DMSO, pH 7.4, buffer, gently shaking. […] IC50 values and Hill slopes were determined by a four parameter logistic model using ActivityBase

The structures appear in SMILES notation.

T1 sequence (P21554 whole entry): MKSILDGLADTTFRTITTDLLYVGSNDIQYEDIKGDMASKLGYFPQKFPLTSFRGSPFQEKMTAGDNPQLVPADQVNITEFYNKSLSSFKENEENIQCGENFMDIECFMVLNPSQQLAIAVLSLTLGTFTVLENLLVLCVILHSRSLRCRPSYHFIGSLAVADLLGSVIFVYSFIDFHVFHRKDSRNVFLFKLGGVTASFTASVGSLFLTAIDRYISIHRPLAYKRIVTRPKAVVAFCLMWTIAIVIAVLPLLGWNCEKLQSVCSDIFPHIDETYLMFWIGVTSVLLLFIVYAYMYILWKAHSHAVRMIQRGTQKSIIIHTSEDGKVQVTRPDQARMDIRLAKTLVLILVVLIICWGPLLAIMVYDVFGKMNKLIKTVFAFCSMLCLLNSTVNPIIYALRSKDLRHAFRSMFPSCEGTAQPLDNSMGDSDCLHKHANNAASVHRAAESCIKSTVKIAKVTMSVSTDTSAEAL

In general, Ki refers to a measure of affinity in units of concentration, obtained from inhibition or displacement. For `CCC(CC)(NC(=O)c1ccc(N2CC(OC)C2)c(OC[C@H]2C[C@@H]2CO)n1)C(=O)OCCCF` [unlabeled compound of formula (I)], the Ki was above 10 µM.
